Source: US20220087951A1, “USE OF CANNABINOIDS IN THE TREATMENT OF EPILEPSY” (GW RESEARCH LIMITED, priority 2020, published 2022)

Tests used:
[1] = Solubility of the drug substance in water; format: physicochemical
[2] = tested on: seizures in patients with Tuberous Sclerosis Complex (TSC); experiment: Example 2: mean total seizures over time of TSC patients after administration of CBD (FIG. 2); format: in vivo, human
Protocol: Patients with TSC were administered a highly purified extract of cannabidiol (CBD) obtained from a cannabis plant described herein. Similar to Example 1, patients with a TSC diagnosis were administered a starting dose of 5 mg/kg/day CBD in addition to their baseline anti-epileptic drug (AED) regimen or placebo.
The daily dose was increased by 5 mg/kg increments until intolerance occurred or a maximum dose of 25 mg/kg/day was achieved. The starting dose increase from 5 mg/kg/day to 10 mg/kg/day occurred 7 days after administration of the first dose of CBD. […] The titration period occurred over two weeks. For patients in need of further seizure reduction, the dosage of 20 mg/kg/day was increased up to 25 mg/kg/day after one week.
All patients were taking at least two concomitant anti-epileptic drugs. These included clobazam; levetiracetam; topiramate; stiripentol; phenobarbital; lacsamide; valproic acid; zonisamide. The average number of concomitant antiepileptic drugs being taken was 2.7. The majority took either clobazam and/or valproic acid.
(§1) Prior to treatment with CBD, patients recorded the number of seizures they experienced. This established the baseline levels. During the course of treatment, patients recorded the number of seizures experienced each day.

[3] = tested on: seizures in children and young adults with Dravet Syndrome and Lennox-Gastaut Syndrome; experiment: Example 1: primary seizure count during baseline and by cumulative day in the treatment period, CBD vs placebo added to baseline AED regimen; format: in vivo, human; conditions: for Ratio to Baseline (number of seizures with treatment to number of seizures at baseline): 5 mg/kg/day starting dose, negative binomial regression of primary seizure count; for percent change in number of seizures compared to baseline: 5 mg/kg/day, positive = decrease in seizures
Protocol: Children and young adults with Dravet Syndrome Lennox-Gastaut Syndrome were administered a highly purified extract of cannabidiol (CBD) obtained from a cannabis plant or placebo.
The highly purified CBD extract (greater than 98% CBD w/w) was administered in a formulation described herein at a starting dose of 5 mg/kg/day in addition to their baseline anti-epileptic drug (AED) regimen.
The starting dose increase from 5 mg/kg/day to 10 mg/kg/day after one week of administering the first dose of CBD. […] The titration period occurred over two weeks. The starting dose was expected to minimize side effects, and not intended to achieve efficacy.
All patients were taking at least two concomitant anti-epileptic drugs. These included clobazam; levetiracetam; topiramate; stiripentol; phenobarbital; lacsamide; valproic acid; zonisamide.
as §1
The ratio in Table 9 is defined as the number of seizures with treatment to the number of seizures at baseline (e.g., before treatment). The percentage defines the percent change in number of seizures compared to baseline. Positive percentages reflect a decrease in the number of seizures compared to baseline, and negative percentages reflect an increase in number of seizures compared to baseline. The ratio to baseline of patients administered CBD extract includes data from patients treated with a maximum of 10 mg/kg/day or 20 mg/kg/day CBD extract. However, the amount of CBD administered to each treatment arm (10 mg/kg/day and 20 mg/kg/day) over the first 7 days of the study is the same.

C=C(C)[C@@H]1CCC(C)=C[C@H]1c1c(O)cc(CCCCC)cc1O [CBD, Cannabidiol]
solubility in water [1]: insoluble in water
reduction in seizures compared to baseline ([2]; after 4 days of treatment): significant reduction in seizures
onset of seizure reduction ([2]; starting dose 5 mg/kg/day): within one week
time to seizure reduction after administration of starting dose ([2]; starting dose 5 mg/kg/day): ≤ 4 days
mean total seizures over time (FIG. 2) ([2]; titration period, starting dose 5 mg/kg/day): starts decreasing during the titration period
Ratio to Baseline (number of seizures with treatment to number of seizures at baseline) ([3]; Day 1): 0.958
percent change in number of seizures compared to baseline ([3]; Day 1): [4.2%]
onset of seizure reduction ([3]; Dravet/Lennox-Gastaut patients, starting dose 5 mg/kg/day): within one week
Ratio to Baseline (number of seizures with treatment to number of seizures at baseline) ([3]; First 2 Days): 0.907
percent change in number of seizures compared to baseline ([3]; First 2 Days): [9.3%]
Ratio to Baseline (number of seizures with treatment to number of seizures at baseline) ([3]; First 3 Days): 0.882
percent change in number of seizures compared to baseline ([3]; First 3 Days): [11.8%]
Ratio to Baseline (number of seizures with treatment to number of seizures at baseline) ([3]; First 4 Days): 0.831
percent change in number of seizures compared to baseline ([3]; First 4 Days): [16.9%]
Ratio to Baseline (number of seizures with treatment to number of seizures at baseline) ([3]; First 5 Days): 0.793
percent change in number of seizures compared to baseline ([3]; First 5 Days): [20.7%]
Ratio to Baseline (number of seizures with treatment to number of seizures at baseline) ([3]; First 6 Days): 0.742
percent change in number of seizures compared to baseline ([3]; First 6 Days): [25.8%]
Ratio to Baseline (number of seizures with treatment to number of seizures at baseline) ([3]; First 7 Days): 0.717
percent change in number of seizures compared to baseline ([3]; First 7 Days): [28.3%]
reduction in seizures compared to baseline ([3]; after 4 days of treatment): significant reduction in seizures
reduction of seizures ([3]; from within 4 days of treatment, 5 mg/kg/day CBD): > 15%
time to seizure reduction after administration of starting dose ([3]; starting dose 5 mg/kg/day): ≤ 4 days
